Measured values reported in patent US20250235411A1, “COMPOSITIONS AND METHODS FOR DELIVERY OF AGENTS” (Kernal Biologics, Inc., priority 2021, published 2025).

Key:
B6 albino mice = assay: In vivo luciferase quantitation, Example 1 (IVIS, in vivo and ex vivo lung, liver, spleen); parameters: species or system mouse; conditions: lipid added at 50 mol % to liver targeting LNPs
Description: Luciferase mRNA was formulated in LNPs containing a cationic ionizable lipid LIP001, cholesterol, DSPC, and PEG-DMG, in the presence or absence of the cationic lipid or cationic ionizable lipid pKa>7 according to the following molar ratios:
(§1) The ratio of the sum of ionizable amines and cationic quaternary ammonium ions to mRNA phosphates was 6. Lipids were dissolved in ethanol and mRNA was dissolved in 50 mM Citrate buffer pH 5.0. The organic and aqueous phases were combined at a flow rate of 12 mL/min on a Precision Nanosystems NanoAssemblr at a ratio of 3:1 (aqueous: organic). The product was immediately diluted to 16.5% ethanol using MilliQ water. The diluted product was dialyzed against a volume of 50 mM Tris pH 7.5 45 mM NaCl that was 200-fold in excess. The dialyzed product was concentrated using Amicon Ultra 100 kDa centrifuge tubes and sterile filtered. mRNA concentration and encapsulation was assessed by the Invitrogen Ribogreen assay.
(§2) LNPs were administered to B6 albino mice via the tail vein at a dose of 0.3 mg/kg. After six hours bioluminescence was measured using an IVIS Spectrum imager. Mice were treated with 150 mg/kg luciferin substrate administered via intraperitoneal injection. Immediately following the in vivo image mice were euthanized and the lung, liver and spleen were harvested for ex vivo imaging.

BALB/c mice = assay: In vivo luciferase quantitation, Example 4 (cationic ionizable lipid pKa>7 LNPs); parameters: species or system mouse; conditions: LIP021 LNPs with LIP001 or without lipid <7 pKa
Description: as §1, with “phosphates in the LNP” for “phosphates”, “300-fold” for “200-fold”
as §2, with “BALB/c” for “B6 albino”, “0.5” for “0.3”, “eighteen” for “six”

Row | SMILES | shift of distribution of luciferase expression to the lungs (B6 albino mice) [fold] | lung targeting, ex vivo bioluminescence (FIG. 10-11) (BALB/c mice)
1 | CC(C)CCC[C@@H](C)[C@H]1CC[C@H]2[C@@H]3CC=C4C[C@@H](OC(=O)NCCN(C)C)CC[C@]4(C)[C@H]3CC[C@]12C.Cl [DC Cholesterol, DC- Cholesterol] | ~40 | –
2 | CCCCC/C=C\C/C=C\CCCCCCCC(=O)OCC(COC(=O)CCC(OCCCCCCCC)OCCCCCCCC)COC(=O)NCCCN1CCC(O)CC1 (centres unmarked) [LIP021, 3-((4,4-bis(octyloxy)butanoyl)oxy)-2-((((3-(4-hydroxy-piperidin-1-yl)propyl)carbamoyl)oxy)methyl) propyl (9Z,12Z)-octadeca-9,12-dienoate] | – | does not exhibit a lung-targeting effect
